Tests used:
[1] = tested on: alpha-1 antichymotrypsin (ACT) mRNA; assay: Northern blot of ACT-mRNA, primary astrocytes; format: cell-based, human
Description: Total RNA (10 μg) was extracted from primary astrocytes and astrocytoma cells with a RNA-STAT kit (Tel-Test). RNA samples were denatured in 50% formamide/2.2 M formaldehyde/20 mM MOPS/5 mM sodium acetate/0.5 mM EDTA, pH 7.4, at 60° C. for 10 minutes, electrophoresed on 1.0% agarose-formaldehyde gels, blotted onto Hybond-N filters and immobilized by UV crosslinking and heating filters to 80° C. Filters were prehybridized for 3 hours and hybridized overnight in a solution consisting of 50% formamide, […] denatured salmon sperm DNA, 5×SSC, 0.1% sodium dodecyl sulfate and 5×Denhardt's solution. Following hybridization, filters were washed twice for a total of 1 hour in 2×SSC/0.2% sodium dodecyl sulfate at room temperature and twice each for a total of 1 hour in 0.5×SSC/0.1% sodium dodecyl sulfate at 55° C. Equal loading was verified by ethidium bromide staining, non-specific hybridization of the ACT probe to the 28S rRNA, and by standardized hybridization to the GAPDH cDNA probe as an internal standard. The APP cDNA probe corresponded to the unique internal 1 kb fragment gel purified from the 3 kb APP cDNA (Kang et al. Nature 325: 733 (1987)), the ACT cRNA probe to a PstI/SacI fragment (536-943) in the human ACT cDNA (Chandra, et al., Biochemistry 22: 5055 (1983)) and the GAPDH probe to the human GAPDH gene (Tokunaga, et al., Cancer Res. 47: 5616 (1987)).

pSV2CAT parental vector = assay: CAT reporter activity in astrocytoma cells transfected with parental vector pSV2CAT; format: cell-based, human
Description: Astrocytoma and neuroblastoma cells were transfected with pSV2CAT or pSV2(APP)CAT by lipofection. Briefly, lipofectamine reagent (Boehringer) was added to DMEM (without serum) and allowed to sit 30 minutes at room temperature. Plasmids (10 μg) in an equal volume of DMEM were then added, and, after sitting for 45 minutes at room temperature, the lipid/DNA solution was added to 60% confluent cells on 100×20 mm cell culture plates. After 4 hours, this solution was removed, and the cells were washed twice in DMEM (without serum). Fresh DMEM medium (containing 10% fetal calf serum) was added. At this time, treatments were administered which included: (1) 0.5 ng/ml IL-1α; (2) 0.5 ng/ml IL-1β; (3) 5 μM Fe2TF (holo-transferrin); and (4) unstimulated controls. […]
After harvesting, cells were resuspended in 100 μl 0.25 M Tris, pH 7.8, and subjected to three cycles of freezing (liquid nitrogen) and […] (37° C.) to lyse cells. […] Protein concentration was determined by a Biorad assay, and exactly 20 μg of lysate was added to a CAT reaction mix containing 50 μl 1M Tris, pH 7.8, 20 μl acetylcoenzyme-A (3.5 mg/ml) and […] ^14C-labeled chloramphenicol (25 mCi/ml). […] For quantitative analysis, the areas on the TLC plates which aligned with dots on the film were excised and the radioactivity was counted in 5 ml of scintillation cocktail (Econofluor) using a scintillation counter (Hewlett Packard). […]

| Substance | increase in ACT-mRNA levels (densitometry) [1] | effect on CAT activity, parental vector (pSV2CAT parental vector) |
| --- | --- | --- |
| interleukin-1α [IL-1α] | greater than 10 fold | – |
| interleukin-1β [IL-1β] | – | no effect |

Reference: patent US6849405B2, “Translation enhancer element of the human amyloid precursor protein gene” (The Brigham and Women's Hospital, Inc., priority 1997, dated 2005)
